Laboratory results from the kinase profiling compilation of Christmann-Franck et al. (2016).

How the values were obtained:
Experiment in all cases: KINOMEscan competition binding
Conditions in all cases: compound 10.0 µM
ZAP70 (human) = ZAP70 (human) (UniProt P43403)
PIK3C2B (human) = PIK3C2B (human) (UniProt O00750)
[1] = tested on: RET (human), P07949 [V804M]
PIK3CB (human) = PIK3CB (human) (UniProt P42338)
SRC (human) = SRC (human) (UniProt P12931)
SGK110 (human) = SGK110 (human) (UniProt P0C264)
[2] = tested on: EGFR (human), P00533 [A750P; 747-749 del]
BMX (human) = BMX (human) (UniProt P51813)
PAK2 (human) = PAK2 (human) (UniProt Q13177)
MAP3K12 (human) = MAP3K12 (human) (UniProt Q12852)
CDK11A (human) = CDK11A (human) (UniProt Q9UQ88)
MAPK13 (human) = MAPK13 (human) (UniProt O15264)
[3] = tested on: ABL1 (human), P00519 [F317L]
MERTK (human) = MERTK (human) (UniProt Q12866)
PRKACA (human) = PRKACA (human) (UniProt P17612)
ROS1 (human) = ROS1 (human) (UniProt P08922)
INSRR (human) = INSRR (human) (UniProt P14616)
MAP2K2 (human) = MAP2K2 (human) (UniProt P36507)
[4] = tested on: EGFR (human), P00533 [L858R]
STK38L (human) = STK38L (human) (UniProt Q9Y2H1)
EPHA1 (human) = EPHA1 (human) (UniProt P21709)
BMPR1A (human) = BMPR1A (human) (UniProt P36894)
STK36 (human) = STK36 (human) (UniProt Q9NRP7)
ULK3 (human) = ULK3 (human) (UniProt Q6PHR2)
MAPK7 (human) = MAPK7 (human) (UniProt Q13164)
PKMYT1 (human) = PKMYT1 (human) (UniProt Q99640)
FER (human) = FER (human) (UniProt P16591)
MAP3K3 (human) = MAP3K3 (human) (UniProt Q99759)
CSNK1G2 (human) = CSNK1G2 (human) (UniProt P78368)
AKT3 (human) = AKT3 (human) (UniProt Q9Y243)
ALK (human) = ALK (human) (UniProt Q9UM73)
PAK7 (human) = PAK7 (human) (UniProt Q9P286)
[5] = tested on: ABL1 (human), P00519 [Q252H]
BMPR2 (human) = BMPR2 (human) (UniProt Q13873)
PAK6 (human) = PAK6 (human) (UniProt Q9NQU5)
RAF1 (human) = RAF1 (human) (UniProt P04049)
MYO3B (human) = MYO3B (human) (UniProt Q8WXR4)
SRMS (human) = SRMS (human) (UniProt Q9H3Y6)
ERBB4 (human) = ERBB4 (human) (UniProt Q15303)
CDK14 (human) = CDK14 (human) (UniProt O94921)
PAK1 (human) = PAK1 (human) (UniProt Q13153)
PIK3CD (human) = PIK3CD (human) (UniProt O00329)

Sequence of MAP3K12 (human) (Q12852 whole entry, looked up): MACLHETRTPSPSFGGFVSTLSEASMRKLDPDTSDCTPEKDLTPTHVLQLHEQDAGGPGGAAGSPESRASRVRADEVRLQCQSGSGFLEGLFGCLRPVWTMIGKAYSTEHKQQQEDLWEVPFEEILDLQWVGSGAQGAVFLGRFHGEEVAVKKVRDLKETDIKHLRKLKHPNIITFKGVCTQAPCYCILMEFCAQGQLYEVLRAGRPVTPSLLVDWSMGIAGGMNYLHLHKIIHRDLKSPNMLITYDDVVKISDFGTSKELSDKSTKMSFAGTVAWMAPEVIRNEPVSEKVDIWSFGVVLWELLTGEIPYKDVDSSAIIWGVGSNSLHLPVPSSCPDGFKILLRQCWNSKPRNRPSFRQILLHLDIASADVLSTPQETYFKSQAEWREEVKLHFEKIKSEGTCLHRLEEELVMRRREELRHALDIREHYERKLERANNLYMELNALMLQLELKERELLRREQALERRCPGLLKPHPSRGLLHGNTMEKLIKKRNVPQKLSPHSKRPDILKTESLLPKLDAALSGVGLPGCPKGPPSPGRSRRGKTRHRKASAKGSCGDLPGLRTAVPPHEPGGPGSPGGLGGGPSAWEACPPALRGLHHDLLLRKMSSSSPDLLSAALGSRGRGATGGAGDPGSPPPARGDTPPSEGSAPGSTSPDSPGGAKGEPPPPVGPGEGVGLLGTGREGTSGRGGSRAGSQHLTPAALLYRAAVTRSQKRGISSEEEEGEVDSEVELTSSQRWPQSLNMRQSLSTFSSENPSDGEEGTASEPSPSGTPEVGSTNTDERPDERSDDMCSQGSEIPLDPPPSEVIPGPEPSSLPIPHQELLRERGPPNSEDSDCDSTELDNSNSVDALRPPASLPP
Sequence of MAPK7 (human) (Q13164 whole entry, looked up): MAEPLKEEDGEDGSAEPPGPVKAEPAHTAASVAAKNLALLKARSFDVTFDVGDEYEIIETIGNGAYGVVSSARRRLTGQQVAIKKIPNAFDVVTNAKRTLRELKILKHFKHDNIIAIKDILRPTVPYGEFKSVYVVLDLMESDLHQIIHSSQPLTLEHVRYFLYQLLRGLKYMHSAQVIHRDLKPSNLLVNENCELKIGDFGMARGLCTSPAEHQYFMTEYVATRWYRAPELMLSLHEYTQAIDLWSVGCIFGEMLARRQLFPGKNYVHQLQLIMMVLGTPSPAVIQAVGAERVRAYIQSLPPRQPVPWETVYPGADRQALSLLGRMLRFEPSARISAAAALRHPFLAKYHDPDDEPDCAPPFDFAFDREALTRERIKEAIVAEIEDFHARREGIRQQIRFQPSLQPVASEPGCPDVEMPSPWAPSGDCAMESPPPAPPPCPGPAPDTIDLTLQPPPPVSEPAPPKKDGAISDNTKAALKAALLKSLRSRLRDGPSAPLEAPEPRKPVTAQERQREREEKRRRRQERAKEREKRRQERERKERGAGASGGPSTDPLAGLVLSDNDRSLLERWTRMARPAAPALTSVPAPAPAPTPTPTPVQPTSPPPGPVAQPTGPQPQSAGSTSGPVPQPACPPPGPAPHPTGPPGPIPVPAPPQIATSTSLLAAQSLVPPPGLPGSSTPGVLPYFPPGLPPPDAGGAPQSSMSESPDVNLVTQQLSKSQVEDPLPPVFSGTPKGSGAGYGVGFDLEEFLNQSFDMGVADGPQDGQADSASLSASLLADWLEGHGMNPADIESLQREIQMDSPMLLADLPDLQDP
Sequence of CDK11A (human) (Q9UQ88 whole entry, looked up): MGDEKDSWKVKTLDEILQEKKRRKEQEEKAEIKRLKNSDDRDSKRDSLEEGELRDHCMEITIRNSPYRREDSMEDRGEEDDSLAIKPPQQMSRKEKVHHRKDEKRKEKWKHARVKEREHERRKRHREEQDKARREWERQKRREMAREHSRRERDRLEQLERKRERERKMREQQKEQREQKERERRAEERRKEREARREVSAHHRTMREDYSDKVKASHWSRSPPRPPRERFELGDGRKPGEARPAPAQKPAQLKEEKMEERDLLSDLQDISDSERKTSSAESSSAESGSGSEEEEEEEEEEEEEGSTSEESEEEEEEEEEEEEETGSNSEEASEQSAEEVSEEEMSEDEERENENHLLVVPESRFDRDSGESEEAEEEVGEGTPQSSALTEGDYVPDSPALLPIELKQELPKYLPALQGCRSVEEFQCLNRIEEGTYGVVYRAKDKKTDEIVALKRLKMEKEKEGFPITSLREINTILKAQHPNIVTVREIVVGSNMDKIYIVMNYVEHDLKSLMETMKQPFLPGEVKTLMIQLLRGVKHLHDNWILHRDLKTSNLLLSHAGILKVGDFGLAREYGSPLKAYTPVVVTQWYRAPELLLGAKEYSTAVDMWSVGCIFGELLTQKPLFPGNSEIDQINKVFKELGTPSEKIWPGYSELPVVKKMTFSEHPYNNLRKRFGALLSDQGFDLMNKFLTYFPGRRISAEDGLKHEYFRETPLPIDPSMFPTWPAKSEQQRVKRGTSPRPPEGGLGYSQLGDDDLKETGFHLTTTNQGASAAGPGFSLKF
Sequence of AKT3 (human) (Q9Y243 whole entry, looked up): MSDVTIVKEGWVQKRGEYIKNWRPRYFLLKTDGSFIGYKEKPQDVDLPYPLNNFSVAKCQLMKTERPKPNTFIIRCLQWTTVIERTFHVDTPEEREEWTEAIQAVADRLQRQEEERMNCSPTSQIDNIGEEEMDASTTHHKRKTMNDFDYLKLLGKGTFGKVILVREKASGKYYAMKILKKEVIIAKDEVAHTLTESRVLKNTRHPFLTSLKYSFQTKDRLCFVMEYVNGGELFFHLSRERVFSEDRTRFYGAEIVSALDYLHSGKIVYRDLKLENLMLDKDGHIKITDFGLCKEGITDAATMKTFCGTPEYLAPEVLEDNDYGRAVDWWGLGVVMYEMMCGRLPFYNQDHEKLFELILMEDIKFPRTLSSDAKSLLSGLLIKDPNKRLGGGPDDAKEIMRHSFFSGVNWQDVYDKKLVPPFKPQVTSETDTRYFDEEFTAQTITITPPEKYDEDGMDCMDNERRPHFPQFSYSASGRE
Sequence of RAF1 (human) (P04049 whole entry, looked up): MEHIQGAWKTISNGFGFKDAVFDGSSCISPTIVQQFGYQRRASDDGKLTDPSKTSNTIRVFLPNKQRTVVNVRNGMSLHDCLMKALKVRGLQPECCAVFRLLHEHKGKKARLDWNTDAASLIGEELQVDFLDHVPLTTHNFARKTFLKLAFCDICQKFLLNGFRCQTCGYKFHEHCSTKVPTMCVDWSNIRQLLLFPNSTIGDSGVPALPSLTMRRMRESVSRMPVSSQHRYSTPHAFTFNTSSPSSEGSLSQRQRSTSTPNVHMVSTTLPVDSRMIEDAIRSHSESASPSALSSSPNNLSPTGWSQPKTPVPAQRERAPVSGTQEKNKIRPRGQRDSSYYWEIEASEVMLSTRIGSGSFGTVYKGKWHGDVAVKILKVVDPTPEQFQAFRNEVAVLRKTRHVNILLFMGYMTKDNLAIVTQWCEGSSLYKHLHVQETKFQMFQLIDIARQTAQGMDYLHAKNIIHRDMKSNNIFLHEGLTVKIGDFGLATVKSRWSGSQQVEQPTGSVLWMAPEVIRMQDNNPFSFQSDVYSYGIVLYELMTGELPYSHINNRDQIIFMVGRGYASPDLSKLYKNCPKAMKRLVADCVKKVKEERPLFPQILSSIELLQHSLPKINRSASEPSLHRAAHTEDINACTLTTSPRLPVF
Sequence of PKMYT1 (human) (Q99640 whole entry, looked up): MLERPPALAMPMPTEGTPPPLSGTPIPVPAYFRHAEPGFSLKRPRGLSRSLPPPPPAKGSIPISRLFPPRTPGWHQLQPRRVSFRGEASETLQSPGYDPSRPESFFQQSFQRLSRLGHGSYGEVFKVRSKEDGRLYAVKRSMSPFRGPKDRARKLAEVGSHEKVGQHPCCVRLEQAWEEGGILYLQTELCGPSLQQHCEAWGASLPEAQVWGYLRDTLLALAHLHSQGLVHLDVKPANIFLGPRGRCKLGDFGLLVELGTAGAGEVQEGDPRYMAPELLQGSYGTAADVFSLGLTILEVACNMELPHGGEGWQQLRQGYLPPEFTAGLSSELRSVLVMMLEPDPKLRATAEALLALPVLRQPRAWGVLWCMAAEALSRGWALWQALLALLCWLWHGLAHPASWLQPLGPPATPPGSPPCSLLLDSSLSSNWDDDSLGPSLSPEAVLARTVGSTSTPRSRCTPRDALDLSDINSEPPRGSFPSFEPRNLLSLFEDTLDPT
Sequence of STK38L (human) (Q9Y2H1 whole entry, looked up): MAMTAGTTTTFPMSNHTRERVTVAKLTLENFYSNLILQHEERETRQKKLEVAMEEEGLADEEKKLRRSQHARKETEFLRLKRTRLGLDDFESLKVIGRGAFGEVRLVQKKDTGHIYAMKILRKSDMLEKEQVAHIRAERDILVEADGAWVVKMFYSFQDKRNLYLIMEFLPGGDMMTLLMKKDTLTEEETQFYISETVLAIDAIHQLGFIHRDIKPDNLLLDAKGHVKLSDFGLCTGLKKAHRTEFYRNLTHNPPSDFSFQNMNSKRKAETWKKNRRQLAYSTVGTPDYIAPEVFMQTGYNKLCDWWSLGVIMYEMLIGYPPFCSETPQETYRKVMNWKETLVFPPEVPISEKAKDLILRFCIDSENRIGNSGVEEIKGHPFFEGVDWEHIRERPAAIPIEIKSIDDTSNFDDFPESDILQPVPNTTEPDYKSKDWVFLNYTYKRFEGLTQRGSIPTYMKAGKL
Sequence of SGK110 (human) (P0C264 whole entry, looked up): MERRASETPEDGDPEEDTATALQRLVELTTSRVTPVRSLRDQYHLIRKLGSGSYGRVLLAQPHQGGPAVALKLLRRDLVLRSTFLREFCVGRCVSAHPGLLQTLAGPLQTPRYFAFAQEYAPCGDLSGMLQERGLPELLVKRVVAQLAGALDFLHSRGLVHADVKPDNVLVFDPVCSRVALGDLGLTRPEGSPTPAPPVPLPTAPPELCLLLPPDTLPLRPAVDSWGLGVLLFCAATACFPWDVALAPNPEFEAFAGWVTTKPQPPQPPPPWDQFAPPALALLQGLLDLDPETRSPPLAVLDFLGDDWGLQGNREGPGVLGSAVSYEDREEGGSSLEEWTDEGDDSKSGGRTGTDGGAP

## CN1C(=O)c2ccccc2N(C)c2nc(Nc3ccc(N4CCC(O)CC4)cc3)ncc21
ZAP70 (human)
  kinase still bound, per cent of control: 87%
PIK3C2B (human)
  kinase still bound, per cent of control: 89%
[1]
  kinase still bound, per cent of control: 3%
PIK3CB (human)
  kinase still bound, per cent of control: 94%
SRC (human)
  kinase still bound, per cent of control: 21%
SGK110 (human)
  kinase still bound, per cent of control: 5.4%
[2]
  kinase still bound, per cent of control: 98%
BMX (human)
  kinase still bound, per cent of control: 89%
PAK2 (human)
  kinase still bound, per cent of control: 81%
MAP3K12 (human)
  kinase still bound, per cent of control: 85%
CDK11A (human)
  kinase still bound, per cent of control: 100%
MAPK13 (human)
  kinase still bound, per cent of control: 100%
[3]
  kinase still bound, per cent of control: 20%
MERTK (human)
  kinase still bound, per cent of control: 100%
PRKACA (human)
  kinase still bound, per cent of control: 100%
ROS1 (human)
  kinase still bound, per cent of control: 35%
INSRR (human)
  kinase still bound, per cent of control: 96%
MAP2K2 (human)
  kinase still bound, per cent of control: 100%
[4]
  kinase still bound, per cent of control: 93%
STK38L (human)
  kinase still bound, per cent of control: 82%
EPHA1 (human)
  kinase still bound, per cent of control: 100%
BMPR1A (human)
  kinase still bound, per cent of control: 61%
STK36 (human)
  kinase still bound, per cent of control: 100%
ULK3 (human)
  kinase still bound, per cent of control: 77%
MAPK7 (human)
  kinase still bound, per cent of control: 0.25%
PKMYT1 (human)
  kinase still bound, per cent of control: 100%
FER (human)
  kinase still bound, per cent of control: 100%
MAP3K3 (human)
  kinase still bound, per cent of control: 0.35%
CSNK1G2 (human)
  kinase still bound, per cent of control: 80%
AKT3 (human)
  kinase still bound, per cent of control: 100%
ALK (human)
  kinase still bound, per cent of control: 100%
PAK7 (human)
  kinase still bound, per cent of control: 87%
[5]
  kinase still bound, per cent of control: 2.1%
BMPR2 (human)
  kinase still bound, per cent of control: 78%
PAK6 (human)
  kinase still bound, per cent of control: 100%
RAF1 (human)
  kinase still bound, per cent of control: 100%
MYO3B (human)
  kinase still bound, per cent of control: 73%
SRMS (human)
  kinase still bound, per cent of control: 87%
ERBB4 (human)
  kinase still bound, per cent of control: 100%
CDK14 (human)
  kinase still bound, per cent of control: 100%
PAK1 (human)
  kinase still bound, per cent of control: 100%
PIK3CD (human)
  kinase still bound, per cent of control: 58%

## CN1C(=O)c2ccccc2N(C)c2nc(NS(=O)(=O)c3ccc(N)cc3)ncc21
ZAP70 (human)
  kinase still bound, per cent of control: 100%
PIK3C2B (human)
  kinase still bound, per cent of control: 97%
[1]
  kinase still bound, per cent of control: 100%
PIK3CB (human)
  kinase still bound, per cent of control: 100%
SRC (human)
  kinase still bound, per cent of control: 100%
SGK110 (human)
  kinase still bound, per cent of control: 100%
[2]
  kinase still bound, per cent of control: 100%
BMX (human)
  kinase still bound, per cent of control: 100%
PAK2 (human)
  kinase still bound, per cent of control: 100%
MAP3K12 (human)
  kinase still bound, per cent of control: 90%
CDK11A (human)
  kinase still bound, per cent of control: 99%
MAPK13 (human)
  kinase still bound, per cent of control: 90%
[3]
  kinase still bound, per cent of control: 100%
MERTK (human)
  kinase still bound, per cent of control: 82%
PRKACA (human)
  kinase still bound, per cent of control: 100%
ROS1 (human)
  kinase still bound, per cent of control: 100%
INSRR (human)
  kinase still bound, per cent of control: 100%
MAP2K2 (human)
  kinase still bound, per cent of control: 100%
[4]
  kinase still bound, per cent of control: 100%
STK38L (human)
  kinase still bound, per cent of control: 100%
EPHA1 (human)
  kinase still bound, per cent of control: 100%
BMPR1A (human)
  kinase still bound, per cent of control: 90%
STK36 (human)
  kinase still bound, per cent of control: 100%
ULK3 (human)
  kinase still bound, per cent of control: 100%
MAPK7 (human)
  kinase still bound, per cent of control: 100%
PKMYT1 (human)
  kinase still bound, per cent of control: 100%
FER (human)
  kinase still bound, per cent of control: 62%
MAP3K3 (human)
  kinase still bound, per cent of control: 100%
CSNK1G2 (human)
  kinase still bound, per cent of control: 100%
AKT3 (human)
  kinase still bound, per cent of control: 88%
ALK (human)
  kinase still bound, per cent of control: 100%
PAK7 (human)
  kinase still bound, per cent of control: 88%
[5]
  kinase still bound, per cent of control: 82%
BMPR2 (human)
  kinase still bound, per cent of control: 100%
PAK6 (human)
  kinase still bound, per cent of control: 100%
RAF1 (human)
  kinase still bound, per cent of control: 100%
MYO3B (human)
  kinase still bound, per cent of control: 74%
SRMS (human)
  kinase still bound, per cent of control: 84%
ERBB4 (human)
  kinase still bound, per cent of control: 100%
CDK14 (human)
  kinase still bound, per cent of control: 100%
PAK1 (human)
  kinase still bound, per cent of control: 100%
PIK3CD (human)
  kinase still bound, per cent of control: 91%
